# Measurements as given in US20220000887A1, “REPURPOSED ANTIBIOTICS FOR NON-NUCLEAR GENOTOXIC CHEMOTHERAPY AND PHARMACEUTICAL COMPOSITION FOR ANTI-CANCER CONTAINING THE SAME” (Korea University Research and Business Foundation, priority 2019, published 2022).
# Where “and” joins values, the source holds several entries; their conditions need not be identical. Equal entries are not always repeated. Entries after “also recorded” stand apart in the source; their conditions may differ. Where two headings read alike, the source gives them in different places.
# Columns and labels:
# [1] = tested on: SW620 (colon cancer cells); experiment: Cell viability analysis (LDH assay), SW620; format: cell-based, human; conditions: FIG. 3
# Experimental: (§1) Particularly, the inventive anticancer drugs had IC50 values of 23.77 μM and 27.05 μM against A549 and SW620, respectively.
# [2] = tested on: A549 (lung cancer cells); experiment: Cell viability analysis (LDH assay), A549; format: cell-based, human; conditions: FIG. 3
# Experimental: as §1
# [3] = tested on: PC3 (prostate cancer cells); experiment: Cell viability analysis (LDH assay), PC3; format: cell-based, human; conditions: FIG. 3
# Experimental: as §1
# [4] = tested on: DU145 (prostate cancer cells); experiment: Cell viability analysis (LDH assay), DU145; format: cell-based, human; conditions: FIG. 3
# Experimental: as §1
# [5] = tested on: MDA-MB-231 metastatic breast cancer cells; experiment: Cell viability analysis (LDH assay), MDA-MB-231; conditions: for apoptotic effect on MDA-MB-231 cells: 48 h treatment
# [6] = tested on: mitochondrial DNA synthesis; experiment: Mitochondrial DNA synthesis (FIG. 5); format: cell-based
# From the text: (§2) RNA was extracted from each sample using TRIzol solution. cDNA synthesized from the isolated RNA or intracellular genomic DNA extracted using a genomic DNA isolation kit was used for real-time polymerase chain reaction (PCR).
# (§3) The real-time PCR data were normalized by the expression of glyceraldehyde-3-phosphate dehydrogenase (GAPDH). Relative expression levels were expressed as fold changes over the control. The results (mean±SE) were obtained in triplicate and a p value <0.05 was taken to be statistically significant.
# [7] = tested on: nuclear DNA and mitochondrial DNA; experiment: Damage to nuclear DNA and mitochondrial DNA (FIG. 8)
# From the text: as §2, §3
# [8] = tested on: mitochondrial genomic DNA; experiment: Taq1 assay for damage to mitochondrial genomic DNA (FIG. 10); format: cell-based
# [9] = tested on: MDA-MB-231 cells; experiment: Mitochondrial membrane potential measurement (JC-1 assay); format: cell-based, human; conditions: 10 μM, 0, 6, 12, 24 h, FIG. 7
# Experimental: Mitochondrial membrane potential differences were measured. To this end, the MDA-MB-231 cells were treated with 10 μM Ester MT-CFX for different periods of time (0, 6, 12, and 24 h) and cultured for indicated periods of time. Cells were harvested, washed once with ice-cold PBS, and cultured with […] 5,5′,6,6′-tetrachloro-1,1′,3,3′-tetraethyl-benzimidazolyl carbocyanine chloride (JC-1) at 37° C. for 20 min. The JC-1 stained cells were centrifuged at 1,300 g for 3 min and washed twice with ice-cold PBS. Mitochondrial membrane potentials of JC-1 monomer (green channel) and aggregate (red channel) were measured in different wavelength bands.
# [10] = tested on: MDA-MB-231 cells; experiment: FACS measurement of Annexin-V positive apoptotic cells; format: cell-based, human; conditions: 10 μM, 0, 6, 12, 24 h, Annexin V assay, FIG. 7
# Experimental: Annexin-V positive apoptotic cells were analyzed by flow cytometry. To this end, the MDA-MB-231 cells were treated with 10 μM Ester MT-CFX for different periods of time (0, 6, 12, and 24 h) and cultured for indicated periods of time. Cells were harvested, washed twice with ice-cold PBS, placed in BD FACS tubes (10^6/mL), and cultured with 10 μg/mL annexin V in PBS containing 10% FBS at room temperature for 30 min. Subsequently, cells were washed with ice-cold PBS and annexin V fluorescence was measured in the FL-1 channel using a FACSCalibur flow cytometer (BD, USA).
# [11] = tested on: nuclear and mitochondrial DNA; experiment: Real-time PCR for nuclear and mitochondrial DNA damage lesions (FIG. 11); format: cell-based
# From the text: as §2, §3
# [12] = tested on: MDA-MB-231 cells; experiment: Reactive oxidative species (ROS) measurement (Amplex Red, CM-H2DCFDA); format: cell-based, human; conditions: 10 μM, 48 h, FIG. 4
# Experimental: The activity of hydrogen peroxide (H2O2) produced in cells was evaluated by detection with Amplex® Red reagent (10-acetyl-3,7-dihydroxyphenoxazine; Thermo Fisher scientific). Here, Amplex® Red reagent reacts with H2O2 in a stoichiometric ratio of 1:1 in the presence of peroxidase in cells to produce resorufin as a red fluorescent product. The fluorescence of resorufin can be analyzed at excitation and emission wavelengths of 571 nm and 581 nm, respectively. The MDA-MB-231 cell line was seeded into a 96-well plate and treated with 10 μM Ester MT-CFX for 48 h. Thereafter, the amount of hydrogen peroxide was measured. A reaction mixture of 50 μM Amplex® Red reagent and 0.1 U/mL HRP was prepared in Krebs-Ringer phosphate buffer (145 mM NaCl, 5.7 mM sodium phosphate, 4.86 mM KCl, 0.54 mM CaCl2, 1.22 mM MgSO4, 5.5 mM glucose, pH 7.35). 100 μL of the reaction mixture was added to each plate well, followed by incubation at 37° C. for 10 min. The brightness of fluorescence was measured at 530-560 nm excitation and 590 nm emission wavelengths using a microplate reader. The MDA-MB-231 cell line was seeded into a confocal dish. […] The fluorescence of reactive oxygen species produced in cells was imaged by confocal laser scanning microscopy at 492-495 nm excitation and 517-527 nm emission wavelengths.
# [13] = tested on: nuclear DNA and mitochondrial DNA
# From the text: as §2, §3
# [14] = tested on: MDA-MB-231 xenograft; experiment: In vivo mouse xenograft model; conditions: intravenous three times a week, 12 weeks, BALB/c-nu-nu mice
# Experimental: Five-week-old immunodeficient male BALB/c-nu-nu mice (Orient bio, Korea) weighing between 18-20 g were used. The animals were bred and housed in a facility maintaining a humidity of 30-40% and a temperature of 22±1° C. on a 12-h light/dark cycle. All animal experiments were approved by the Ethics Committee for Animal Studies at Korea University. Animals were treated in accordance with the protocol approved by the Ethics Committee.
# MDA-MB-231 cells (5×10^6 cells) were injected subcutaneously into 6-week-old immunodeficient BALB/c-nu-nu mice weighing between 18-20 g to establish tumor-bearing mouse models. […] The lengths of the long and short axes of tumors were measured weekly. 12 weeks after the first injection of each compound, the mice were sacrificed and tumor samples were collected for further analysis. […] Each asterisk (*) indicates a significant difference to the corresponding control.
structure (smiles),measurement,setting,value
O=C(NCCCCCC[P+](c1ccccc1)(c1ccccc1)c1ccccc1)c1cn(C2CC2)c2cc(N3CCNCC3)c(F)cc2c1=O.[Cl-] [Amide Mt-CFX],apoptotic effects on SW620,[1],apoptotic effects
same,apoptotic effects on A549,[2],apoptotic effects
same,apoptotic effects on PC3,[3],apoptotic effects
same,apoptotic effects on DU145,[4],apoptotic effects
same,apoptotic effect on MDA-MB-231 cells,[5]; LDH assay,enhanced apoptotic effect; also recorded: apoptotic effects
"O=C(O)c1cn(C2CC2)c2cc(N3CCNCC3)c(F)cc2c1=O [ciprofloxacin, reference compound]",apoptotic effect on MDA-MB-231 cells,[5]; LDH assay,little or no apoptotic effect
Cl.O=C(OCCCCCC[P+](c1ccccc1)(c1ccccc1)c1ccccc1)c1cn(C2CC2)c2cc(N3CCNCC3)c(F)cc2c1=O.[Cl-] [Ester Mt-CFX],apoptotic effects on SW620,[1],apoptotic effects
same,mitochondrial DNA synthesis,[6],inhibition of mitochondrial DNA synthesis
same,toxicity to mitochondrial genes,[7],selective toxicity to mitochondrial genes
same,mitochondria targeting (damage to mitochondrial genomic DNA),[8],targeted mitochondria
same,mitochondrial membrane potential differences,[9],reduction of mitochondrial membrane potential differences
same,apoptotic effects on A549,[2],apoptotic effects
same,apoptosis over time,[10],occurrence of apoptosis over time
same,mitochondrial mutations (DNA damage lesions),[11],induced mitochondrial mutations
same,apoptotic effects on PC3,[3],apoptotic effects
same,production of reactive oxygen species,[12],reactive oxygen species are produced
same,toxicity to nuclear genes,[13],no toxicity to nuclear genes
same,apoptotic effects on DU145,[4],apoptotic effects
same,cancer volume compared to control,[14],significant reduction in cancer volume
same,apoptotic effect on MDA-MB-231 cells,[5]; LDH assay,strong apoptotic effect; also recorded: apoptotic effects
same,IC50,"[5]; MDA-MB-231, 48 h treatment, LDH assay",~15 µM and 20 to 30 µM
same,"apoptotic activity against the cancer cells, fold higher than that of ciprofloxacin","[5]; MDA-MB-231, ratio of IC50 values","~55,000 fold"
"COc1cccc2c1C(=O)c1c(O)c3c(c(O)c1C2=O)C[C@@](O)(C(=O)CO)C[C@@H]3O[C@H]1C[C@H](N)[C@H](O)[C@H](C)O1 [doxorubicin, reference compound]",toxicity to nuclear genes,[7],strong toxicity to nuclear genes
